Results as given in article PMC6934184, “Selective DNA-PKcs inhibition extends the therapeutic index of localized radiotherapy and chemotherapy” (The Journal of Clinical Investigation, 2019).

Biological target: T1, WNK3 (Homo sapiens, UniProt Q9BYP7)
T1 construct: purchased Thermo Fisher Scientific (Life Technologies) SelectScreen
Test: SelectScreen LanthaScreen
Assay type: binding
Conditions: read-out: % displacement
Method in brief: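 Percent values come from Thermo SelectScreen profiling of NU5455, combining activity and binding assays. CSF1R was run in Z'LYTE format at Km app ATP, and CAMK1 in Adapta format with ATP listed at 10.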

T1 sequence (Q9BYP7 whole entry): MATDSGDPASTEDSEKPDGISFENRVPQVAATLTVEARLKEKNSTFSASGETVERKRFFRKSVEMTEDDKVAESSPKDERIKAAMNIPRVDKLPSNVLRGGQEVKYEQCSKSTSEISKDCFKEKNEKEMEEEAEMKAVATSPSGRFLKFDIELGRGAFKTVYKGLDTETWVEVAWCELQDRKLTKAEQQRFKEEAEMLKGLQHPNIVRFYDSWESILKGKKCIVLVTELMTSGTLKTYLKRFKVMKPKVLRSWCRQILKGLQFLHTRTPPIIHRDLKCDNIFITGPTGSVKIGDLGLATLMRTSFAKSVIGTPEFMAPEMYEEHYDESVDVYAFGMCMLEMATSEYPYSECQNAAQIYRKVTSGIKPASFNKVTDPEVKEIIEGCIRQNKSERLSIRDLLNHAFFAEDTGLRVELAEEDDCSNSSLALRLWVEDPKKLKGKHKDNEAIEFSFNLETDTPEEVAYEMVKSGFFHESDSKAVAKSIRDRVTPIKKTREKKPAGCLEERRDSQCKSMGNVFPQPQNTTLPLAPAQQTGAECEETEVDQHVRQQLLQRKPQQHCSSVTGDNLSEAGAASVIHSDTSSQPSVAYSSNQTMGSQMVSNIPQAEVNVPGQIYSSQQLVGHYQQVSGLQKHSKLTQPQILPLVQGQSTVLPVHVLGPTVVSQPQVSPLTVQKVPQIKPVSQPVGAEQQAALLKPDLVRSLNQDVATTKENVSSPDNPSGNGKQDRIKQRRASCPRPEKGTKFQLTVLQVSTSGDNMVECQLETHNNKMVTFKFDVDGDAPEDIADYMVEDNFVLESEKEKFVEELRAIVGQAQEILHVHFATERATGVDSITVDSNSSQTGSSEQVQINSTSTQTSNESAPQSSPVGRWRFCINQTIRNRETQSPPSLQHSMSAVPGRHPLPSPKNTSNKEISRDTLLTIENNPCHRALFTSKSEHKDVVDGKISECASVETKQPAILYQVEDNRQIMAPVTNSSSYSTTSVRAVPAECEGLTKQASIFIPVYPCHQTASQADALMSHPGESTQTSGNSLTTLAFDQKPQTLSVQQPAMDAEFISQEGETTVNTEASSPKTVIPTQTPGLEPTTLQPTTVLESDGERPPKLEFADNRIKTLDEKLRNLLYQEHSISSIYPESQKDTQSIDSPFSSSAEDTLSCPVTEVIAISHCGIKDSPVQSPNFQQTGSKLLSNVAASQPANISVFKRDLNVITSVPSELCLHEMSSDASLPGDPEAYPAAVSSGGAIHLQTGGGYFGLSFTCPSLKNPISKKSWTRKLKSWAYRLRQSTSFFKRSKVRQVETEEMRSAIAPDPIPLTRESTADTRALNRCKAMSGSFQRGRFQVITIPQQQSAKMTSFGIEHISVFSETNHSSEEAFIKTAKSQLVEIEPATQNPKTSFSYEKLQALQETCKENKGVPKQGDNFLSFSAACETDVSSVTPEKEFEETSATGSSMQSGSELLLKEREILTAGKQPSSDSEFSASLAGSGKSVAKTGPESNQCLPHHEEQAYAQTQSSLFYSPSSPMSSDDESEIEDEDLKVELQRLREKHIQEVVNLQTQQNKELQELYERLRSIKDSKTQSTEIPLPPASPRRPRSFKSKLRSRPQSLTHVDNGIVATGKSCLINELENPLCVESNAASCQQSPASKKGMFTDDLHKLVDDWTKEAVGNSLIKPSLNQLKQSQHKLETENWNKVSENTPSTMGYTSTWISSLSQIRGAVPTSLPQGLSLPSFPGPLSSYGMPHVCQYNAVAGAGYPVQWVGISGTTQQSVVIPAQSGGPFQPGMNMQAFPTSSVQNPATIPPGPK

CN(C(=O)CN1CCOCC1)c1ccc2sc3c(-c4cccc5c(=O)cc(N6CC7CCC(C6)O7)oc45)cccc3c2c1 [NU5455]
inhibition at 1 µM: -1.2%
